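Method: 48-hour compound exposure of cells in 96-well plates, five concentrations, linear interpolation of endpoints. The concentration for 50% growth inhibition is given as GI50. TGI marks complete inhibition of growth.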 Where a SMILES comes first, the peptide text is derived from it. [ ]: non-standard residue; d: D form. The star is where a group is joined. Decanoyl = CCCCCCCCCC(=O)*; Leu(ol) = CC(C)C[C@H](N)CO; Iva = CC[C@](C)(N)C(=O)O; Aib = CC(C)(N)C(=O)O
Tests used:
Assay in all cases: growth of human tumour cells (NCI), 48 h
786-0 renal = test system: 786-0 renal
A498 renal = test system: A498 renal
A549 NSCLC = test system: A549 NSCLC
ACHN renal = test system: ACHN renal
BT-549 breast = test system: BT-549 breast
CAKI-1 renal = test system: CAKI-1 renal
CCRF-CEM leukemia = test system: CCRF-CEM leukemia
COLO 205 colon = test system: COLO 205 colon
DU-145 prostate = test system: DU-145 prostate
EKVX NSCLC = test system: EKVX NSCLC
HCC-2998 colon = test system: HCC-2998 colon
HCT-116 colon = test system: HCT-116 colon
HCT-15 colon = test system: HCT-15 colon
HL-60(TB) leukemia = test system: HL-60(TB) leukemia
HOP-62 NSCLC = test system: HOP-62 NSCLC
HOP-92 NSCLC = test system: HOP-92 NSCLC
HS 578T breast = test system: HS 578T breast
HT29 colon = test system: HT29 colon
IGROV1 ovarian = test system: IGROV1 ovarian
K-562 leukemia = test system: K-562 leukemia
KM12 colon = test system: KM12 colon
LOX IMVI melanoma = test system: LOX IMVI melanoma
M14 melanoma = test system: M14 melanoma
MALME-3M melanoma = test system: MALME-3M melanoma
MCF7 breast = test system: MCF7 breast
MDA-MB-231 breast = test system: MDA-MB-231 breast
MDA-MB-435 = test system: MDA-MB-435
MOLT-4 leukemia = test system: MOLT-4 leukemia
NCI-H226 lung = test system: NCI-H226 lung
NCI-H460 lung = test system: NCI-H460 lung
NCI-H522 lung = test system: NCI-H522 lung
NCI/ADR-RES ovarian = test system: NCI/ADR-RES ovarian
OVCAR-3 ovarian = test system: OVCAR-3 ovarian
OVCAR-4 ovarian = test system: OVCAR-4 ovarian
OVCAR-5 ovarian = test system: OVCAR-5 ovarian
OVCAR-8 ovarian = test system: OVCAR-8 ovarian
PC-3 prostate = test system: PC-3 prostate
RPMI-8226 leukemia = test system: RPMI-8226 leukemia
RXF 393 renal = test system: RXF 393 renal
SF-268 CNS = test system: SF-268 CNS
SF-295 CNS = test system: SF-295 CNS
SF-539 CNS = test system: SF-539 CNS
SK-MEL-2 melanoma = test system: SK-MEL-2 melanoma
SK-MEL-28 melanoma = test system: SK-MEL-28 melanoma
SK-MEL-5 melanoma = test system: SK-MEL-5 melanoma
SK-OV-3 ovarian = test system: SK-OV-3 ovarian
SN12C renal = test system: SN12C renal
SNB-19 CNS = test system: SNB-19 CNS
SNB-75 CNS = test system: SNB-75 CNS
SR leukemia = test system: SR leukemia
SW-620 colon = test system: SW-620 colon
T-47D breast = test system: T-47D breast
TK-10 renal = test system: TK-10 renal
UACC-257 melanoma = test system: UACC-257 melanoma
UACC-62 melanoma = test system: UACC-62 melanoma
UO-31 renal = test system: UO-31 renal

## CCCCCCCCCC(=O)N[C@@](C)(CC)C(=O)N1CCC[C@H]1C(=O)N[C@@H](CC(C)C)C(=O)N[C@@](C)(CC)C(=O)N[C@@H](CCC(N)=O)C(=O)N[C@H](CCC(N)=O)C(=O)NC(C)(C)C(=O)NC(C)(C)C(=O)N[C@@H](CCC(N)=O)C(=O)N[C@H](CC(C)C)C(=O)N[C@H](CO)CC(C)C (Decanoyl-[Iva]PL[Iva]Q[dQ][Aib][Aib]Q[dL][Leu(ol)])
786-0 renal
  GI50: 2.48 µM
  TGI: 6.48 µM
A498 renal
  GI50: 2.75 µM
  TGI: 7.36 µM
A549 NSCLC
  GI50: 4.93 µM
  TGI: 27 µM
ACHN renal
  GI50: 8.34 µM
  TGI: 20.8 µM
BT-549 breast
  GI50: 2.08 µM
  TGI: 4.11 µM
CAKI-1 renal
  GI50: 6.6 µM
  TGI: 20.8 µM
CCRF-CEM leukemia
  GI50: 2.01 µM
  TGI: 4.49 µM
COLO 205 colon
  GI50: 1.91 µM
  TGI: 3.8 µM
DU-145 prostate
  GI50: 1.96 µM
  TGI: 3.67 µM
EKVX NSCLC
  GI50: 2.2 µM
  TGI: 5.47 µM
HCC-2998 colon
  GI50: 2.15 µM
  TGI: 4.58 µM
HCT-116 colon
  GI50: 3.3 µM
  TGI: 12.1 µM
HCT-15 colon
  GI50: 7.72 µM
  TGI: 22.5 µM
HL-60(TB) leukemia
  GI50: 2.23 µM
  TGI: 6.26 µM
HOP-62 NSCLC
  GI50: 2.25 µM
  TGI: 5.04 µM
HOP-92 NSCLC
  GI50: 1.34 µM
  TGI: 4.6 µM
HS 578T breast
  GI50: 2.1 µM
  TGI: 5.5 µM
HT29 colon
  GI50: 3.48 µM
  TGI: 14.8 µM
IGROV1 ovarian
  GI50: 4.05 µM
  TGI: 14.8 µM
K-562 leukemia
  GI50: 2.09 µM
  TGI: 4.37 µM
KM12 colon
  GI50: 2.03 µM
  TGI: 4.37 µM
LOX IMVI melanoma
  GI50: 1.97 µM
  TGI: 4.26 µM
M14 melanoma
  GI50: 1.93 µM
  TGI: 3.95 µM
MALME-3M melanoma
  GI50: 2.12 µM
  TGI: 4.95 µM
MCF7 breast
  GI50: 2.04 µM
  TGI: 4.38 µM
MDA-MB-231 breast
  GI50: 2.04 µM
  TGI: 4.71 µM
MDA-MB-435
  GI50: 1.86 µM
  TGI: 3.6 µM
MOLT-4 leukemia
  GI50: 2.09 µM
  TGI: 4.43 µM
NCI-H226 lung
  GI50: 2.21 µM
  TGI: 5.2 µM
NCI-H460 lung
  GI50: 3.53 µM
  TGI: 11.8 µM
NCI-H522 lung
  GI50: 2.06 µM
  TGI: 5.13 µM
NCI/ADR-RES ovarian
  GI50: 5.59 µM
  TGI: 19.6 µM
OVCAR-3 ovarian
  GI50: 7.61 µM
  TGI: 22.2 µM
OVCAR-4 ovarian
  GI50: 12.7 µM
  TGI: 28.5 µM
OVCAR-5 ovarian
  GI50: 3.38 µM
  TGI: 12.4 µM
OVCAR-8 ovarian
  GI50: 1.91 µM
  TGI: 4.17 µM
PC-3 prostate
  GI50: 1.79 µM
  TGI: 3.51 µM
RPMI-8226 leukemia
  GI50: 2.33 µM
  TGI: 5.06 µM
RXF 393 renal
  GI50: 1.81 µM
  TGI: 3.63 µM
SF-268 CNS
  GI50: 2.5 µM
  TGI: 6.52 µM
SF-295 CNS
  GI50: 1.76 µM
  TGI: 3.42 µM
SF-539 CNS
  GI50: 1.98 µM
  TGI: 4.21 µM
SK-MEL-2 melanoma
  GI50: 2.76 µM
  TGI: 8.36 µM
SK-MEL-28 melanoma
  GI50: 1.77 µM
  TGI: 3.3 µM
SK-MEL-5 melanoma
  GI50: 1.88 µM
  TGI: 3.56 µM
SK-OV-3 ovarian
  GI50: 5.03 µM
  TGI: 18.9 µM
SN12C renal
  GI50: 2.29 µM
  TGI: 6.15 µM
SNB-19 CNS
  GI50: 2.08 µM
  TGI: 4.66 µM
SNB-75 CNS
  GI50: 1.6 µM
  TGI: 4.15 µM
SR leukemia
  GI50: 1.94 µM
  TGI: 4.32 µM
SW-620 colon
  GI50: 4.05 µM
  TGI: 15.2 µM
T-47D breast
  GI50: 3.56 µM
  TGI: 17.8 µM
TK-10 renal
  GI50: 4.09 µM
  TGI: 16.7 µM
UACC-257 melanoma
  GI50: 1.75 µM
  TGI: 3.46 µM
UACC-62 melanoma
  GI50: 1.99 µM
  TGI: 4.91 µM
UO-31 renal
  GI50: 3.58 µM
  TGI: 16.1 µM

Reference: PubChem BioAssay (NCI)
